The values that follow come from the supplement of paper PMC8024199.

What all share (experiment): drug sensitivity score (DSS) (DSS score); higher = more sensitive (stronger growth inhibition); extreme values may be limits of the assay
The test system of assay [1] is Ba/F3 P210-BCR-ABL1 RUNX1-/- (mouse). The method in brief:
(§1)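 A drug sensitivity score summarised each dose-response curve, with luminescence from CellTiter-Glo scaled between vehicle and positive-control wells. Values are the mean of two replicates. The cells were mouse Ba/F3 clones that were CRISPR/Cas9-edited at a target exon or were edited controls, exposed on pre-printed 384-well plates to a 528-compound library at five concentrations spanning a 10,000-fold range. Plates held 10,000 cells per well in RPMI with 10% FBS for 72 h at 37 °C and 5% CO2.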

The subject of assay [2] is Ba/F3 P210-BCR-ABL1 RUNX1-/mut (mouse). The method in brief: as §1
Assay [3] concerns Ba/F3 P210-BCR-ABL1 RUNX1wt/wt control (mouse). The method in brief:
as §1

SMILES strings stand for the structures. ± gives the standard deviation of the averaged measurements.

Turning to `CNC(=O)c1nn(C)c2c1C(C)(C)Cc1cnc(Nc3ccc(N4CCN(C)CC4)cc3)nc1-2` [Milciclib], the drug sensitivity score in assay [1] stood at 20.9 ± 0.78; in assay [2], 14.7 ± 0.85; in assay [3] it was 10.8 ± 0.71.
Regarding `CCCCCCCCCCCCCCCCOP(=O)([O-])OCC[N+](C)(C)C` [Miltefosine], the drug sensitivity score in assay [1] was determined as 7.05 ± 0.21; in assay [2], 5.5 ± 1.3; in assay [3], 2 ± 1.4.
The corresponding values for `CCS(=O)(=O)Nc1ccc(Oc2ccc(F)cc2F)c(-c2cn(C)c(=O)c3[nH]ccc23)c1` [Mivebresib] are 41.35 ± 0.21, 41 ± 2 and 34 ± 1.3.
Regarding `Nc1ccccc1NC(=O)c1ccc(CNc2nccc(-c3cccnc3)n2)cc1` [Mocetinostat], the drug sensitivity score is 17.5 ± 1.6 in assay [1], 17.4 ± 2.3 in assay [2] and 17.1 ± 0.14 in assay [3].
The corresponding values for `CCNC(=O)C[C@@H]1N=C(c2ccc(Cl)cc2)c2cc(OC)ccc2-n2c(C)nnc21` [Molibresib] are 18.4 ± 1.6, 18.1 ± 2 and 12.1 ± 0.14.
The corresponding values for `N#CCNC(=O)c1ccc(-c2ccnc(Nc3ccc(N4CCOCC4)cc3)n2)cc1` [Momelotinib] are 8.45 ± 1.1, 5.9 ± 1.1 and 6.15 ± 0.64.
The corresponding values for `CCCN(CCC)C(=O)C1=Cc2ccc(-c3ccc(C(=O)N4CCCC4)cc3)cc2N=C(N)C1` [Motolimod] are 1.45 ± 0.35, 1 ± 1.1 and 0.
Regarding `FC(F)(F)c1ccc(/C=C/c2nc(COc3ccc(CCCCn4ccnn4)cc3)co2)cc1` [Mubritinib], the drug sensitivity score in assay [1] was found to be 5.1 ± 0.28; in assay [2] it was 5.55 ± 0.49; in assay [3], 5.95 ± 0.21.
With `Cc1cc(OCc2nnc(SC3CCCC3)n2-c2cccnc2)ccc1-c1ccc(S(C)(=O)=O)cc1` [NMS-873], the drug sensitivity score amounted to 16.3 ± 1.6 in assay [1], 14.7 ± 1.1 in assay [2] and 22.2 ± 0.71 in assay [3].
As for `COc1ccc(-c2ccc3ncc4c(c3c2)n(-c2ccc(N3CCNCC3)c(C(F)(F)F)c2)c(=O)n4C)cn1` [NVP-BGT226], the values for the drug sensitivity score in assay [1], in assay [2] and in assay [3] were 22.4 ± 2.3, 23.1 ± 1.4 and 14.5, respectively.
As to `Cc1ccc(C(=O)Nc2cccc(C(F)(F)F)c2)cc1Nc1nc(-c2cccnc2)nc2c1cnn2C` [NVP-BHG712], the drug sensitivity score in assay [1] was found to be 7.45 ± 0.35; in assay [2], 5.15 ± 0.071; in assay [3], 5.4 ± 0.42.
Turning to `COc1cc2c(cc1OC(C)C)[C@H](c1ccc(Cl)cc1)N(c1ccc(N(C)C[C@H]3CC[C@H](N4CCN(C)C(=O)C4)CC3)cc1)C(=O)C2` [NVP-CGM097], the results for the drug sensitivity score in assay [1], in assay [2] and in assay [3] were 8.7 ± 0.71, 8.8 ± 3 and 6.3 ± 0.28, respectively.
Take `CN[C@@H](C)C(=O)N[C@H](C(=O)N1CCC[C@H]1c1nc(C(=O)c2ccc(F)cc2)cs1)C1CCCCC1` [NVP-LCL161]: the drug sensitivity score stood at 26.4 ± 4.4 in assay [1], 7.6 ± 8.5 in assay [2] and 23.6 ± 2.8 in assay [3].
Turning to `Cn1c(Nc2ccc(C(F)(F)F)cc2)nc2cc(Oc3ccnc(-c4ncc(C(F)(F)F)[nH]4)c3)ccc21` [NVP-RAF265], the values for the drug sensitivity score in assay [1], in assay [2] and in assay [3] were 2.5 ± 1.8, 0 and 0, respectively.
Regarding `CC(=O)c1cc2c(o1)C(=O)c1ccccc1C2=O` [Napabucasin], the drug sensitivity score in assay [1] was found to be 17.4 ± 0.14; in assay [2] it was 19.4 ± 3; in assay [3], 11.1 ± 2.5.
Take `CN1C(=O)N[C@H](Cc2c[nH]c3c(Cl)cccc23)C1=O` [Necrostatin 2]: the drug sensitivity score in assay [1], in assay [2] and in assay [3] was 0 throughout.
Take `O=c1ncn2nc(Sc3ccc(F)cc3F)ccc2c1-c1c(Cl)cccc1Cl` [Neflamapimod]: the values for the drug sensitivity score in assay [1], in assay [2] and in assay [3] were 1.9 ± 0.71, 0.85 ± 1.2 and 0, respectively.
As to `CCOc1cc2ncc(C#N)c(Nc3ccc(OCc4ccccn4)c(Cl)c3)c2cc1NC(=O)/C=C/CN(C)C` [Neratinib], the drug sensitivity score in assay [1] turned out to be 2.35 ± 1.5; in assay [2], 1.5 ± 2.1; in assay [3], 0.
Consider `COC(=O)c1ccc2c(c1)NC(=O)/C2=C(\Nc1ccc(N(C)C(=O)CN2CCN(C)CC2)cc1)c1ccccc1` [Nintedanib], for which the drug sensitivity score is 17.4 in assay [1], 8.15 ± 4.6 in assay [2] and 5.4 ± 0.14 in assay [3].
Taken in the same sequence, the figures for `NC(=O)c1cccc2cn(-c3ccc([C@@H]4CCCNC4)cc3)nc12` [Niraparib] were 7.8 ± 0.99, 8.15 ± 3.3 and 2.7 ± 0.71.
For `CC(O)c1cc(C(=O)N[C@@H](C)Cn2ccc(-c3ccc(C#N)c(Cl)c3)n2)n[nH]1` (some centres not stated) [ODM-201], the drug sensitivity score stood at 2.55 ± 0.071 in assay [1], 2.05 ± 1.9 in assay [2] and 0 in assay [3].
Taken in the same sequence, the figures for `CC(=O)c1cnc2ccc(-c3cc(Cl)c(O)c(Cl)c3)nc2c1N[C@H]1CC[C@H](CN(C)C)CC1` [OTS167] were 22.1 ± 0.78, 20.4 ± 0.92 and 17 ± 0.42.
Take `C=CC(=O)Nc1cccc(Oc2nc(Nc3ccc(N4CCN(C)CC4)cc3)nc3ccsc23)c1` [Olmutinib]: the drug sensitivity score in assay [1] is 0.65 ± 0.92; in assay [2] it was 0.45 ± 0.64; in assay [3], 0.
Regarding `COC(=O)C[C@](O)(CCCC(C)(C)O)C(=O)O[C@@H]1C(OC)=C[C@]23CCCN2CCc2cc4c(cc2[C@H]13)OCO4` [Omacetaxine], the drug sensitivity score in assay [1] came to 33.8 ± 2.5; in assay [2], 35.4 ± 3.7; in assay [3] it was 28.8 ± 0.92.
Regarding `CC1(C)CC[C@]2(NC(=O)C(C)(F)F)CC[C@]3(C)[C@H](C(=O)C=C4[C@@]5(C)C=C(C#N)C(=O)C(C)(C)[C@@H]5CC[C@]43C)[C@@H]2C1` [Omaveloxolone], the drug sensitivity score stood at 22.9 ± 0.28 in assay [1], 22.4 ± 0.78 in assay [2] and 17.2 ± 0.14 in assay [3].
Turning to `COc1ncc(-c2ccc3nccc(-c4ccnnc4)c3c2)cc1NS(=O)(=O)c1ccc(F)cc1F` [Omipalisib], the drug sensitivity score in assay [1] was determined as 12.3 ± 1.4; in assay [2] it was 11.9 ± 3.4; in assay [3], 7.8 ± 0.28.
`CC(C)c1cc(C(=O)N2Cc3ccc(CN4CCN(C)CC4)cc3C2)c(O)cc1O` [Onalespib]: the figures for the drug sensitivity score in assay [1], in assay [2] and in assay [3] were 19.1 ± 2.9, 17.8 ± 1.1 and 14.6 ± 0.21, respectively.
As for `COC[C@H](NC(=O)c1cnc(C)s1)C(=O)N[C@@H](COC)C(=O)N[C@@H](Cc1ccccc1)C(=O)[C@@]1(C)CO1` [Oprozomib], the drug sensitivity score in assay [1] was found to be 22.2 ± 1.3; in assay [2], 20.5 ± 1.6; in assay [3], 19.2 ± 0.35.
Take `CNC(=O)c1ccc2cc([C@@]3(O)CCn4cncc43)ccc2c1` [Orteronel]: the drug sensitivity score in assay [1], in assay [2] and in assay [3] was 0 each time.
`C=CC(=O)Nc1cc(Nc2nccc(-c3cn(C)c4ccccc34)n2)c(OC)cc1N(C)CCN(C)C` [Osimertinib]: the drug sensitivity score in assay [1] is 5.6 ± 0.28; in assay [2], 5.6 ± 0.57; in assay [3], 1.25 ± 1.2.
`O=C(O)C(=O)O.[NH-][C@@H]1CCCC[C@H]1[NH-].[Pt+2]` [Oxaliplatin]: the drug sensitivity score turned out to be 29 ± 0.14 in assay [1], 28.6 ± 0.71 in assay [2] and 25.85 ± 0.21 in assay [3].
On to `C=CCc1cccc(/C=N/NC(=O)CN2CCN(Cc3ccccc3)CC2)c1O` [PAC-1], for which the drug sensitivity score is 4.95 ± 0.21 in assay [1], 4.65 ± 0.78 in assay [2] and 0.15 ± 0.21 in assay [3].
As for `O=C(Nc1cccnc1)N1CCC(Cc2cccc(Oc3ccc(C(F)(F)F)cn3)c2)CC1` [PF-3845], the drug sensitivity score was found to be 2.15 ± 0.64 in assay [1], 1.9 ± 2.7 in assay [2] and 2.1 ± 0.14 in assay [3].
Regarding `COc1ccccc1S(=O)(=O)Nc1ccc2c(c1)CN(C)C(=O)N2` [PFI-1], the drug sensitivity score in assay [1] is 16 ± 2.8; in assay [2], 15.9 ± 3.9; in assay [3], 9.35 ± 0.071.
In the case of `CN1CCN(c2cc(C(=O)Nc3ccc4c(c3)-c3c(c(C(N)=O)nn3-c3ccc(F)cc3)CC4)c(Cl)cn2)CC1` [PHA 408], the values for the drug sensitivity score in assay [1], in assay [2] and in assay [3] were 10.2 ± 1.1, 8.95 ± 1.1 and 7.4 ± 0.57, respectively.
Turning to `O=C(Nc1cc(Cl)cc2c1[nH]c1cnccc12)c1cccnc1` [PS-1145], the drug sensitivity score was 0.4 ± 0.57 in assay [1], 0.7 ± 0.99 in assay [2] and 0 in assay [3].
Taken in the same sequence, the figures for `COc1cc(Br)c(Nc2nc(-c3c(C)nc4ncccn34)cs2)c(Br)c1` [PTC-209] were 9.05 ± 2.6, 7.8 ± 2.4 and 7.5 ± 0.14.
Turning to `C1=N/C2=N/c3ccc(OCCN4CCCC4)c(c3)COC/C=C/COCc3cccc(c3)C(=C1)N2` [Pacritinib], the drug sensitivity score in assay [1] came to 13.8 ± 1.6; in assay [2] it was 10.8 ± 2.6; in assay [3], 7 ± 0.14.
Consider `CC(=O)c1c(C)c2cnc(Nc3ccc(N4CCNCC4)cn3)nc2n(C2CCCC2)c1=O` [Palbociclib], for which the drug sensitivity score in assay [1] was 11.4 ± 1.3; in assay [2], 8.85 ± 1.1; in assay [3], 2.25 ± 0.21.
